{"source": "PubChem BioAssay AID1963829", "about": "(Molecular Pharmacology Branch, DTP, NCI, 2024);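 also: spheroids exposed to drugs for seven days before viability read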;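 as to viability, T/C: 100% = DMSO vehicle control wells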", "system": "935938-334-R-J1-PDC complex spheroid viability", "assay": "Anticancer human tumor 935938-334-R-J1-PDC patient-derived small intestine adenocarcinoma cell line growth inhibition [POLQ]", "conditions": "for IC50: curve of first compound; for viability, T/C: stronger effect = lower value", "summary_of_the_method": "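Complex spheroid viability model combining PDC tumour cells with endothelial (HUVEC) and MSC stromal cells. Novobiocin, ART-558 or RP6685 were tested singly and in combination with standard and investigational anticancer drugs. Each was titrated in half-log steps from near clinical Cmax, or from 10 microM where Cmax was unknown.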", "key": {"[1]": {"conditions": "second compound 0.0316 µM, first compound 0.0316 µM"}, "[2]": {"conditions": "second compound 0.0316 µM, first compound 0.1 µM"}, "[3]": {"conditions": "second compound 0.0316 µM, first compound 0.316 µM"}, "[4]": {"conditions": "second compound 0.0316 µM, first compound 1 µM"}, "[5]": {"conditions": "second compound 0.0316 µM, first compound 3.16 µM"}, "[6]": {"conditions": "second compound 0.0316 µM, first compound 10 µM"}, "[7]": {"conditions": "second compound 0.1 µM, first compound 0.0316 µM"}, "[8]": {"conditions": "second compound 0.1 µM, first compound 0.1 µM"}, "[9]": {"conditions": "second compound 0.1 µM, first compound 0.316 µM"}, "[10]": {"conditions": "second compound 0.1 µM, first compound 1 µM"}, "[11]": {"conditions": "second compound 0.1 µM, first compound 3.16 µM"}, "[12]": {"conditions": "second compound 0.1 µM, first compound 10 µM"}, "[13]": {"conditions": "second compound 0.316 µM, first compound 0.0316 µM"}, "[14]": {"conditions": "second compound 0.316 µM, first compound 0.1 µM"}, "[15]": {"conditions": "second compound 0.316 µM, first compound 0.316 µM"}, "[16]": {"conditions": "second compound 0.316 µM, first compound 1 µM"}, "[17]": {"conditions": "second compound 0.316 µM, first compound 3.16 µM"}, "[18]": {"conditions": "second compound 0.316 µM, first compound 10 µM"}, "[19]": {"conditions": "second compound 1 µM, first compound 0.0316 µM"}, "[20]": {"conditions": "second compound 1 µM, first compound 0.1 µM"}, "[21]": {"conditions": "second compound 1 µM, first compound 0.316 µM"}, "[22]": {"conditions": "second compound 1 µM, first compound 1 µM"}, "[23]": {"conditions": "second compound 1 µM, first compound 3.16 µM"}, "[24]": {"conditions": "second compound 1 µM, first compound 10 µM"}, "[25]": {"conditions": "second compound 3.16 µM, first compound 0.0316 µM"}, "[26]": {"conditions": "second compound 3.16 µM, first compound 0.1 µM"}, "[27]": {"conditions": "second compound 3.16 µM, first compound 0.316 µM"}, "[28]": {"conditions": "second compound 3.16 µM, first compound 1 µM"}, "[29]": {"conditions": "second compound 3.16 µM, first compound 3.16 µM"}, "[30]": {"conditions": "second compound 3.16 µM, first compound 10 µM"}, "[31]": {"conditions": "second compound 10 µM, first compound 0.0316 µM"}, "[32]": {"conditions": "second compound 10 µM, first compound 0.1 µM"}, "[33]": {"conditions": "second compound 10 µM, first compound 0.316 µM"}, "[34]": {"conditions": "second compound 10 µM, first compound 1 µM"}, "[35]": {"conditions": "second compound 10 µM, first compound 3.16 µM"}, "[36]": {"conditions": "second compound 10 µM, first compound 10 µM"}}, "data": [{"smiles": "CC(C)n1c(=O)n(C)c2cnc3cc(F)c(-c4ccc(OCCCN5CCCCC5)nc4)cc3c21", "note": "+ Cc1cccc(N(C)C(=O)C2C(O)CCN2c2nc(C)cc(C(F)(F)F)c2C#N)c1", "values": [{"measurement": "IC50", "setting": "second compound 0.0316 µM", "value": "> 10000", "unit": "nM"}, {"measurement": "IC50", "setting": "second compound 0.1 µM", "value": "> 10000", "unit": "nM"}, {"measurement": "IC50", "setting": "second compound 0.316 µM", "value": "> 10000", "unit": "nM"}, {"measurement": "IC50", "setting": "second compound 1 µM", "value": "> 10000", "unit": "nM"}, {"measurement": "IC50", "setting": "second compound 3.16 µM", "value": "> 10000", "unit": "nM"}, {"measurement": "IC50", "setting": "second compound 10 µM", "value": "> 10000", "unit": "nM"}, {"measurement": "viability, T/C", "setting": "[1]", "value": 86.8, "unit": "%"}, {"measurement": "viability, T/C", "setting": "[2]", "value": 98.4, "unit": "%"}, {"measurement": "viability, T/C", "setting": "[3]", "value": 77.5, "unit": "%"}, {"measurement": "viability, T/C", "setting": "[4]", "value": 112, "unit": "%"}, {"measurement": "viability, T/C", "setting": "[5]", "value": 111, "unit": "%"}, {"measurement": "viability, T/C", "setting": "[6]", "value": 125, "unit": "%"}, {"measurement": "viability, T/C", "setting": "[7]", "value": 85.9, "unit": "%"}, {"measurement": "viability, T/C", "setting": "[8]", "value": 84.7, "unit": "%"}, {"measurement": "viability, T/C", "setting": "[9]", "value": 82.8, "unit": "%"}, {"measurement": "viability, T/C", "setting": "[10]", "value": 82, "unit": "%"}, {"measurement": "viability, T/C", "setting": "[11]", "value": 110, "unit": "%"}, {"measurement": "viability, T/C", "setting": "[12]", "value": 88.3, "unit": "%"}, {"measurement": "viability, T/C", "setting": "[13]", "value": 97.5, "unit": "%"}, {"measurement": "viability, T/C", "setting": "[14]", "value": 94.9, "unit": "%"}, {"measurement": "viability, T/C", "setting": "[15]", "value": 100, "unit": "%"}, {"measurement": "viability, T/C", "setting": "[16]", "value": 97, "unit": "%"}, {"measurement": "viability, T/C", "setting": "[17]", "value": 94.2, "unit": "%"}, {"measurement": "viability, T/C", "setting": "[18]", "value": 97.3, "unit": "%"}, {"measurement": "viability, T/C", "setting": "[19]", "value": 88, "unit": "%"}, {"measurement": "viability, T/C", "setting": "[20]", "value": 103, "unit": "%"}, {"measurement": "viability, T/C", "setting": "[21]", "value": 89.1, "unit": "%"}, {"measurement": "viability, T/C", "setting": "[22]", "value": 93.5, "unit": "%"}, {"measurement": "viability, T/C", "setting": "[23]", "value": 105, "unit": "%"}, {"measurement": "viability, T/C", "setting": "[24]", "value": 98.7, "unit": "%"}, {"measurement": "viability, T/C", "setting": "[25]", "value": 93.4, "unit": "%"}, {"measurement": "viability, T/C", "setting": "[26]", "value": 93.7, "unit": "%"}, {"measurement": "viability, T/C", "setting": "[27]", "value": 100, "unit": "%"}, {"measurement": "viability, T/C", "setting": "[28]", "value": 98.1, "unit": "%"}, {"measurement": "viability, T/C", "setting": "[29]", "value": 112, "unit": "%"}, {"measurement": "viability, T/C", "setting": "[30]", "value": 89.5, "unit": "%"}, {"measurement": "viability, T/C", "setting": "[31]", "value": 105, "unit": "%"}, {"measurement": "viability, T/C", "setting": "[32]", "value": 80.6, "unit": "%"}, {"measurement": "viability, T/C", "setting": "[33]", "value": 90.5, "unit": "%"}, {"measurement": "viability, T/C", "setting": "[34]", "value": 84.6, "unit": "%"}, {"measurement": "viability, T/C", "setting": "[35]", "value": 76.9, "unit": "%"}, {"measurement": "viability, T/C", "setting": "[36]", "value": 80.1, "unit": "%"}]}, {"smiles": "CC1COCCN1c1cc(C2(O)CC3CCC(C2)O3)c2cnn(-c3ccn[nH]3)c2n1", "note": "(centres undefined) + Cc1cccc(N(C)C(=O)C2C(O)CCN2c2nc(C)cc(C(F)(F)F)c2C#N)c1", "values": [{"measurement": "IC50", "setting": "second compound 0.0316 µM", "value": 372, "unit": "nM"}, {"measurement": "IC50", "setting": "second compound 0.1 µM", "value": 262, "unit": "nM"}, {"measurement": "IC50", "setting": "second compound 0.316 µM", "value": 331, "unit": "nM"}, {"measurement": "IC50", "setting": "second compound 1 µM", "value": 215, "unit": "nM"}, {"measurement": "IC50", "setting": "second compound 3.16 µM", "value": 198, "unit": "nM"}, {"measurement": "IC50", "setting": "second compound 10 µM", "value": 155, "unit": "nM"}, {"measurement": "viability, T/C", "setting": "[1]", "value": 84, "unit": "%"}, {"measurement": "viability, T/C", "setting": "[2]", "value": 76.2, "unit": "%"}, {"measurement": "viability, T/C", "setting": "[3]", "value": 52.9, "unit": "%"}, {"measurement": "viability, T/C", "setting": "[4]", "value": 29.1, "unit": "%"}, {"measurement": "viability, T/C", "setting": "[5]", "value": 18.7, "unit": "%"}, {"measurement": "viability, T/C", "setting": "[6]", "value": 13.8, "unit": "%"}, {"measurement": "viability, T/C", "setting": "[7]", "value": 101, "unit": "%"}, {"measurement": "viability, T/C", "setting": "[8]", "value": 90.3, "unit": "%"}, {"measurement": "viability, T/C", "setting": "[9]", "value": 40.1, "unit": "%"}, {"measurement": "viability, T/C", "setting": "[10]", "value": 25.8, "unit": "%"}, {"measurement": "viability, T/C", "setting": "[11]", "value": 17.7, "unit": "%"}, {"measurement": "viability, T/C", "setting": "[12]", "value": 9.91, "unit": "%"}, {"measurement": "viability, T/C", "setting": "[13]", "value": 66.2, "unit": "%"}, {"measurement": "viability, T/C", "setting": "[14]", "value": 92.2, "unit": "%"}, {"measurement": "viability, T/C", "setting": "[15]", "value": 51.3, "unit": "%"}, {"measurement": "viability, T/C", "setting": "[16]", "value": 24.8, "unit": "%"}, {"measurement": "viability, T/C", "setting": "[17]", "value": 18, "unit": "%"}, {"measurement": "viability, T/C", "setting": "[18]", "value": 13.3, "unit": "%"}, {"measurement": "viability, T/C", "setting": "[19]", "value": 77.7, "unit": "%"}, {"measurement": "viability, T/C", "setting": "[20]", "value": 74.5, "unit": "%"}, {"measurement": "viability, T/C", "setting": "[21]", "value": 37, "unit": "%"}, {"measurement": "viability, T/C", "setting": "[22]", "value": 25.3, "unit": "%"}, {"measurement": "viability, T/C", "setting": "[23]", "value": 18.9, "unit": "%"}, {"measurement": "viability, T/C", "setting": "[24]", "value": 12.5, "unit": "%"}, {"measurement": "viability, T/C", "setting": "[25]", "value": 90.6, "unit": "%"}, {"measurement": "viability, T/C", "setting": "[26]", "value": 64.5, "unit": "%"}, {"measurement": "viability, T/C", "setting": "[27]", "value": 40.2, "unit": "%"}, {"measurement": "viability, T/C", "setting": "[28]", "value": 23.9, "unit": "%"}, {"measurement": "viability, T/C", "setting": "[29]", "value": 20.6, "unit": "%"}, {"measurement": "viability, T/C", "setting": "[30]", "value": 12.3, "unit": "%"}, {"measurement": "viability, T/C", "setting": "[31]", "value": 70.3, "unit": "%"}, {"measurement": "viability, T/C", "setting": "[32]", "value": 56.8, "unit": "%"}, {"measurement": "viability, T/C", "setting": "[33]", "value": 39.6, "unit": "%"}, {"measurement": "viability, T/C", "setting": "[34]", "value": 23.2, "unit": "%"}, {"measurement": "viability, T/C", "setting": "[35]", "value": 17.2, "unit": "%"}, {"measurement": "viability, T/C", "setting": "[36]", "value": 9.31, "unit": "%"}]}]}
